Laboratory results as given in patent publication US20140010939A1, “Sweetness Enhancers, Sweetener Compositions, Methods of Making the Same and Consumables Containing the Same” (Nutrinova Nutrition Specialties & Food Ingredients GmbH, priority 2011, published 2014).

How the values were obtained:
[1] = test system: control cell line without sweet receptor (HEKα15#17); assay: Control cell line without sweet receptor in the same calcium cell based assay
Protocol: For measurement of human T1R2/T1R3 taste receptor dependent activity a control cell line without sweet receptor based on HEK 293 and a cell line expressing the sweet receptor hT1R2/hT1R3 based on HEK 293, respectively, are seeded into assay plates and labelled with the calcium sensitive fluorescence dye Fluo4-AM in a culture medium. The potential modulators, e.g. the test compound, are added to the control cell line and to the cell line expressing the sweet receptor hT1R2/hT1R3, respectively.
A stable cell line based on HEK293 was termed HEKα15#17 served as control for functional Ga-protein and a stable cell line HEKGα15#17R2R3b#8 C6 served as cell line expressing the sweet receptor hT1R2/hT1R3 based on HEKGα15#17.
The cells were cultured in DMEM/HG and 10% FCS Gold, 4 mM L-Glutamin, 1,3 mg/ml Geneticin (HEKGα15#17) or the same medium additionally containing 6 μg/ml Blasticidin (HEKGα15#17R2R3b#8 C6). The medium for the assay was DMEM/HG (high glucose, 4.5 g/l glucose, Life Technologies) and 10% FCS Gold, 4 mM L-Glutamin (HEKGα15#17) or DMEM/LG (low glucose, 1 g/l glucose; Life Technologies) and 10% FCS Gold (HEKGα15#17R2R3b#8C6), respectively.
In order to evaluate the sweet receptor modulating activity of the compound of formula (Ia), compound of formula (Ia) was added to the cultures in a concentration of 25 μM in a volume of 50 μl. Controls were KH-buffer (Krebs HEPES-buffer: 118 mM NaCl, 4.7 mM KCl, 1.2 mM MgSO4, 1.2 mM KH2PO4, 4.2 mM NaHCO3, 1.3 mM CaCl2, 10 mM Hepes, pH 7.4) either without or with sweetness enhancer.
Further controls for function of G-protein and receptor were isoproterenol (1 μM, Sigma Aldrich), ionomycin (1 μM, Calbiochem) and ATP (1 μM, Applichem).
For measurement of human T1R2/T1R3 taste receptor dependent activity, on day 1 of the test procedure the HEKα15#17 cells (control cell line without sweet receptor) and the HEKGα15#17R2R3b#8 C6 cells (cell line expressing the sweet receptor hT1R2/hT1R3), respectively, were transferred to low-glucose medium.
On day 2 the cells were seeded into assay plates at a density of 25,000 cells/well. Assay plates for fluorescence measurement (black clear bottom 96-cavity plates, Greiner Bio-One) were coated with poly-D-lysine. For direct comparison both cell lines (control cell line without sweet receptor and cell line expressing the sweet receptor hT1R2/hT1R3) were seeded into different cavities of the same assay plate. The plate was placed into the incubator for 48 hours at 37° C., 5% CO2, 100% relative humidity.
On day 4 the calcium assay was performed. For this assay, the cells were marked with Fluo4-AM in medium and KH-buffer. To each cavity 100 μl KH-buffer/250 μM sulfinpyrazone/4 μM Fluo4-AM were added gently to 100 μl medium (final concentration of Fluo4-AM=2 μM, stock solution of Fluo4-AM 1 mM in DMSO, excitation at 485 nm, emission at 520 nm, Fisher Scientific, 58239 Schwerte, Germany).
The plate was placed into the incubator for 1 hour. In the mean time the test substances (“ligands”) were prepared in a separate plate (5 times concentrated, 150 μl/cavity, and then automatically 50 μl/cavity were transferred into the screening cell plate by pipetting robot (FLEX-station, Molecular Devices, Sunnyvale, Calif.).
The culture medium was carefully removed and 200 μl KH-buffer/250 μM sulfinpyrazone per cavity was added slowly. Cells were left in the FLEX-station for 20 minutes for adaptation, followed by measurement at 37° C.

[2] = Stability test at 30° C. at three pH-values (HPLC); format: physicochemical; details: for Stability: 30° C., 8 weeks, 0.2 mM, HPLC
Protocol: The stability of the compound of formula (Ia) was tested at 30° C. at three different pH-values.
The test ran over 8 weeks with the compound of formula (Ia) placed in temperature controlled ovens. Samples were taken according to the following scheme: Days 0, 3, 6, 10, 14, 21, and 28 followed by weeks 6 and 8. All samples were analyzed by HPLC. Reference samples for days 3, 6, 10, 14, 21, and 28 plus weeks 6 and 8 were kept at −20° C. and analyzed together with the samples at 30° C.
Each individual sample of the compound of formula (Ia) contained 18 μg in 200 μl buffer (0.2 mM). All samples were prepared in 1.5 ml HPLC vials at the same day. Samples for day 0 were immediately analyzed and all other samples placed in ovens. Reference samples were immediately frozen at −20° C.
One reference sample per pH-value was used. Samples from the oven were taken and reference samples were added after thawing. The set of samples at 30° with reference sample was grouped into the HPLC autosampler to minimize the time gap between HPLC-analysis within each set of samples. All samples were analyzed by double injections.
Samples were analyzed by the method shown below. The target peak was manually integrated and mean values of double injections were used to prepare graphs for assessment of the stability (see FIGS. 4 to 6).

[3] = Taste and spit assay phase II - assessment of fructose enhancing features; format: in vivo; details: 20 μM with fructose (4%) in 0.5% ethanol versus fructose (4%) only, 5 individuals, 10 ml
Protocol: The taste of a sample of compound of formula (Ia) with regard to sweetness and fructose enhancing features was assessed by using a panel of trained sensory evaluators experienced in the sweet taste estimation procedure. 5 individuals were asked to taste the quality of single samples of 10 ml volume. Panelists were asked to take a sample of the liquid to be assessed (20 μM test substance compound of formula (Ia) in 0.5% ethanol) into the mouth and after some time allowed for taste perception to spit the sample out completely. Subsequently, the panelists were asked to rinse their mouth well with water or black tea to reduce any potential carry over effects. The tasting of a sample could be repeated if required. In the next step the panelists were asked to answer questions in a pairwise comparison test to determine the enhancement of sweet taste of the test substance with fructose relative to fructose only. Again, 5 individuals were given samples of 10 ml volume. This time two samples were prepared for direct comparison regarding sweetness. One sample contained fructose (4%) in solvent (0.5% ethanol) and the other sample additionally contained 20 μM of the test substance compound of formula (Ia). Designation of the samples with A and B was randomized and decoded after the taste procedure. […]

Stability ([2]; pH=3.0 Na-Citrate buffer, FIG. 4): stable during 8 weeks at 30 °C at pH=3.0
Stability ([2]; pH=4.5 Na-Citrate buffer, FIG. 5): stable during 8 weeks at 30 °C at pH=4.5
Stability ([2]; pH=6.5 phosphate buffer, FIG. 6): stable during 8 weeks at 30 °C at pH=6.5
Temperature and pH stability (overall) ([2]; summary of the test at 30° C., pH 3.0, 4.5, 6.5): excellent temperature and pH stability
Structure (SMILES): CC(=O)N(O)CCCCCNC(=O)C(O)(CC(=O)O)CC(=O)NCCCN(O)C(C)=O (centres unmarked) [compound of formula (Ia)]
Fluo4-AM fluorescence increase (activation of control cell line) ([1]; 25 μM, in the presence of fructose (20 mM), FIG. 1 ninth bar): does not activate the control cell line
Fluo4-AM fluorescence increase (activation of control cell line) ([1]; 25 μM, without fructose, FIG. 1 eighth bar): does neither activate the control cell line
Fluo4-AM fluorescence increase (activation of control cell line) ([1]; secondary screening, in the presence of fructose, FIG. 1 seventh bar): does not activate the control cell line
Sweetness in pairwise comparison with fructose only [3]: All 5 panelists identified the sample containing 4% fructose with the compound of formula (Ia) as sweeter than the sample containing 4% fructose only
